According to ChEMBL document CHEMBL3621049, “Imidazole derivatives show anticancer potential by inducing apoptosis and cellular senescence” (2014):
Active and inactive are the calls of the source.

Tests used:
Format in all cases: functional, cell-based
SK-MEL-5 = test: Growth inhibition of human SK-MEL-5 cells at 10 uM by sulforhodamine B assay
NCI-H23 = test: Growth inhibition of human NCI-H23 cells at 10 uM by sulforhodamine B assay
LOX IMVI = test: Growth inhibition of human LOXIMVI cells at 10 uM by sulforhodamine B assay
MCF7 = test: Growth inhibition of human MCF7 cells at 10 uM by sulforhodamine B assay
Malme-3M = test: Growth inhibition of human MALME-3M cells at 10 uM by sulforhodamine B assay
BT-549 = test: Growth inhibition of human BT549 cells at 10 uM by sulforhodamine B assay
PC-3 = test: Growth inhibition of human PC3 cells at 10 uM by sulforhodamine B assay
SW-620 = test: Growth inhibition of human SW620 cells at 10 uM by sulforhodamine B assay
SR = test: Growth inhibition of human SR cells at 10 uM by sulforhodamine B assay
UACC-257 = test: Growth inhibition of human UACC257 cells at 10 uM by sulforhodamine B assay
HCT-116 = test: Growth inhibition of human HCT116 cells at 10 uM by sulforhodamine B assay
CAKI-1 = test: Growth inhibition of human Caki1 cells at 10 uM by sulforhodamine B assay
MDA-MB-468 = test: Growth inhibition of human MDA-MB-468 cells at 10 uM by sulforhodamine B assay
UO-31 = test: Growth inhibition of human UO31 cells at 10 uM by sulforhodamine B assay
SF-295 = test: Growth inhibition of human SF295 cells at 10 uM by sulforhodamine B assay
IGROV-1 = test: Growth inhibition of human IGROV1 cells at 10 uM by sulforhodamine B assay
KM12 = test: Growth inhibition of human KM12 cells at 10 uM by sulforhodamine B assay
SK-MEL-2 = test: Growth inhibition of human SK-MEL-2 cells at 10 uM by sulforhodamine B assay
HL-60(TB) = test: Growth inhibition of human HL-60(TB) cells at 10 uM by sulforhodamine B assay
HCC 2998 = test: Growth inhibition of human HCC2998 cells at 10 uM by sulforhodamine B assay
DU-145 = test: Growth inhibition of human DU145 cells at 10 uM by sulforhodamine B assay
A498 = test: Growth inhibition of human A498 cells at 10 uM by sulforhodamine B assay
SF-268 = test: Growth inhibition of human SF268 cells at 10 uM by sulforhodamine B assay
MOLT-4 = test: Growth inhibition of human MOLT4 cells at 10 uM by sulforhodamine B assay
HT-29 = test: Growth inhibition of human HT-29 cells at 10 uM by sulforhodamine B assay
CCRF-CEM = test: Growth inhibition of human CCRF-CEM cells at 10 uM by sulforhodamine B assay
TK-10 = test: Growth inhibition of human TK10 cells at 10 uM by sulforhodamine B assay
OVCAR-5 = test: Growth inhibition of human OVCAR5 cells at 10 uM by sulforhodamine B assay
MDA-MB-231 = test: Growth inhibition of human MDA-MB-231 cells at 10 uM by sulforhodamine B assay
MDA-MB-435 = test: Growth inhibition of human MDA-MB-435 cells at 10 uM by sulforhodamine B assay
OVCAR-8 = test: Growth inhibition of human OVCAR8 cells at 10 uM by sulforhodamine B assay
NCI-H322M = test: Growth inhibition of human NCI-H322M cells at 10 uM by sulforhodamine B assay
U-251 = test: Growth inhibition of human U251 cells at 10 uM by sulforhodamine B assay
Hs-578T = test: Growth inhibition of human Hs 578T cells at 10 uM by sulforhodamine B assay
A549 = test: Growth inhibition of human A549/ATCC cells at 10 uM by sulforhodamine B assay
786-0 = test: Growth inhibition of human 786-0 cells at 10 uM by sulforhodamine B assay
ACHN = test: Growth inhibition of human ACHN cells at 10 uM by sulforhodamine B assay
SNB-19 = test: Growth inhibition of human SNB19 cells at 10 uM by sulforhodamine B assay
OVCAR-4 = test: Growth inhibition of human OVCAR4 cells at 10 uM by sulforhodamine B assay
SK-OV-3 = test: Growth inhibition of human SKOV3 cells at 10 uM by sulforhodamine B assay
T47D = test: Growth inhibition of human T47D cells at 10 uM by sulforhodamine B assay
NCI-H522 = test: Growth inhibition of human NCI-H522 cells at 10 uM by sulforhodamine B assay
SF-539 = test: Growth inhibition of human SF539 cells at 10 uM by sulforhodamine B assay
NCI-H226 = test: Growth inhibition of human NCI-H226 cells at 10 uM by sulforhodamine B assay
SN12C = test: Growth inhibition of human SN12C cells at 10 uM by sulforhodamine B assay
HCT-15 = test: Growth inhibition of human HCT15 cells at 10 uM by sulforhodamine B assay
M14 = test: Growth inhibition of human M14 cells at 10 uM by sulforhodamine B assay
RPMI-8226 = test: Growth inhibition of human RPMI8226 cells at 10 uM by sulforhodamine B assay
K562 = test: Growth inhibition of human K562 cells at 10 uM by sulforhodamine B assay
NCI-H460 = test: Growth inhibition of human NCI-H460 cells at 10 uM by sulforhodamine B assay
NCI/ADR-RES = test: Growth inhibition of human NCI/ADR-RES cells at 10 uM by sulforhodamine B assay
UACC-62 = test: Growth inhibition of human UACC62 cells at 10 uM by sulforhodamine B assay
RXF 393 = test: Growth inhibition of human RXF393 cells at 10 uM by sulforhodamine B assay
SK-MEL-28 = test: Growth inhibition of human SK-MEL-28 cells at 10 uM by sulforhodamine B assay
OVCAR-3 = test: Growth inhibition of human OVCAR3 cells at 10 uM by sulforhodamine B assay
HOP-92 = test: Growth inhibition of human HOP92 cells at 10 uM by sulforhodamine B assay
COLO 205 = test: Growth inhibition of human COLO205 cells at 10 uM by sulforhodamine B assay
HOP-62 = test: Growth inhibition of human HOP62 cells at 10 uM by sulforhodamine B assay
SNB-75 = test: Growth inhibition of human SNB75 cells at 10 uM by sulforhodamine B assay

Measured: growth inhibition (GI)

COc1ccc(-c2nc(-c3ccccc3)c(-c3ccccc3)[nH]2)cc1OC1CCCC1
active: all assays above
